Measurements taken from the supplement of paper PMC4862054.

Assays:
Details in all cases: incubation time: 72 h
BT-474 [1] = test: normalised response (% of control), CellTox Green; higher = less cell death (100 = DMSO, 0 = benzethonium chloride kill control)
Method in brief: (§1)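 Values are normalised signals, each belonging to one concentration of the series. Breast cancer cells (20 µl suspension) were seeded into 384-well plates with compound at 5 concentrations in 10-fold steps over a compound-specific 10,000-fold range and incubated 72 h. Readouts were CellTox Green fluorescence (485/520 nm), then CellTiter-Glo luminescence after 10 min at room temperature, with each plate set to 0.1 % DMSO as 100 and a positive kill control as 0.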

BT-549 [2] = test: as above
Method in brief: as §1

CAL-120 [3] = test: as above
Method in brief: as §1

CAL-148 [4] = test: as above
Method in brief: as §1

CAL-51 [5] = test: as above
Method in brief: as §1

CAL-85-1 [6] = test: as above
Method in brief: as §1

DU-4475 [7] = test: as above
Method in brief: as §1

HCC1143 [8] = test: as above
Method in brief: as §1

HCC1599 [9] = test: as above
Method in brief: as §1

HCC1937 [10] = test: as above
Method in brief: as §1

HDQ-P1 [11] = test: as above
Method in brief: as §1

Hs578T [12] = test: as above
Method in brief: as §1

MCF-10A [13] = test: as above
Method in brief: as §1

MDA-MB-231 [14] = test: as above
Method in brief: as §1

MDA-MB-436 [15] = test: as above
Method in brief: as §1

MDA-MB-453 [16] = test: as above
Method in brief: as §1

MDA-MB-468 [17] = test: as above
Method in brief: as §1

MFM-223 [18] = test: as above
Method in brief: as §1

BT-474 [19] = test: normalised response (% of control), CellTiter-Glo; higher = more viable cells (100 = DMSO, 0 = benzethonium chloride kill control)
Experimental: (§2)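 DSRT, 72 h incubation, CellTox Green / CellTiter-Glo readout. Signal is normalised to DMSO and benzethonium chloride controls. Value is the normalised response at the highest dose.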

BT-549 [20] = test: as above
Experimental: as §2

CAL-120 [21] = test: as above
Experimental: as §2

CAL-148 [22] = test: as above
Experimental: as §2

CAL-51 [23] = test: as above
Experimental: as §2

CAL-85-1 [24] = test: as above
Experimental: as §2

DU-4475 [25] = test: as above
Experimental: as §2

HCC1143 [26] = test: as above
Experimental: as §2

HCC1599 [27] = test: as above
Experimental: as §2

HCC1937 [28] = test: as above
Experimental: as §2

HDQ-P1 [29] = test: as above
Experimental: as §2

Hs578T [30] = test: as above
Experimental: as §2

MCF-10A [31] = test: as above
Experimental: as §2

MDA-MB-231 [32] = test: as above
Experimental: as §2

MDA-MB-436 [33] = test: as above
Experimental: as §2

MDA-MB-453 [34] = test: as above
Experimental: as §2

MDA-MB-468 [35] = test: as above
Experimental: as §2

MFM-223 [36] = test: as above
Experimental: as §2

SK-BR-3 = test: as above
Experimental: as §2

SMILES	normalised response (BT-474 [1]) [%]	normalised response (BT-549 [2]) [%]	normalised response (CAL-120 [3]) [%]	normalised response (CAL-148 [4]) [%]	normalised response (CAL-51 [5]) [%]	normalised response (CAL-85-1 [6]) [%]	normalised response (DU-4475 [7]) [%]	normalised response (HCC1143 [8]) [%]	normalised response (HCC1599 [9]) [%]	normalised response (HCC1937 [10]) [%]	normalised response (HDQ-P1 [11]) [%]	normalised response (Hs578T [12]) [%]	normalised response (MCF-10A [13]) [%]	normalised response (MDA-MB-231 [14]) [%]	normalised response (MDA-MB-436 [15]) [%]	normalised response (MDA-MB-453 [16]) [%]	normalised response (MDA-MB-468 [17]) [%]	normalised response (MFM-223 [18]) [%]	normalised response (BT-474 [19]) [%]	normalised response (BT-549 [20]) [%]	normalised response (CAL-120 [21]) [%]	normalised response (CAL-148 [22]) [%]	normalised response (CAL-51 [23]) [%]	normalised response (CAL-85-1 [24]) [%]	normalised response (DU-4475 [25]) [%]	normalised response (HCC1143 [26]) [%]	normalised response (HCC1599 [27]) [%]	normalised response (HCC1937 [28]) [%]	normalised response (HDQ-P1 [29]) [%]	normalised response (Hs578T [30]) [%]	normalised response (MCF-10A [31]) [%]	normalised response (MDA-MB-231 [32]) [%]	normalised response (MDA-MB-436 [33]) [%]	normalised response (MDA-MB-453 [34]) [%]	normalised response (MDA-MB-468 [35]) [%]	normalised response (MFM-223 [36]) [%]	normalised response (SK-BR-3) [%]
CCCCC/C=C/C=C1/C(=O)C=C[C@@H]1C/C=C\CCCC(=O)O [15D-PGJ2] (800 nM)	106	105	109	102	104	94.3	94.9	110	108	110	82.9	124	95.6	104	107	72.9	119	106	95.4	96.5	101	108	71.8	101	100	107	97	102	97.1	102	108	97.8	97.4	106	88.7	102	106
CC(C)N(CCCNC(=O)Nc1ccc(C(C)(C)C)cc1)C[C@H]1O[C@@H](n2cc(Br)c3c(N)ncnc32)[C@H](O)[C@@H]1O [SGC0946] (10000 nM)	85.2	95.8	97.4	93.7	101	114	98.7	100	81.6	94	99.1		79.5	71.9	75	91.9	115	89.3	88.1	92.3	102	82.6	94.1	83.1	94.3	91.4	78	84.2	87.2	101	101	74.7	93.8	69.3	70.7	81.2	73.5
CC[C@@]1(O)C(=O)OCc2c1cc1n(c2=O)Cc2cc3c(CN(C)C)c(O)ccc3nc2-1 [Topotecan] (10000 nM)	88.4	56.9	49.3	7.1	-18.1	42.3	60.8	87.9	71.7	18.6	69.8	102	55.5	46.1	29.1	85.1	29.5	43.5	47.8	22.1	37	0.39	15.2	21.6	0.66	26.9	9.36	15.3	54.5	55.2	39	43.1	21	33.2	4.47	61.7	19.6
CC(=O)OC[C@H]1O[C@@H]([S-])[C@H](OC(C)=O)[C@@H](OC(C)=O)[C@@H]1OC(C)=O.CCP(CC)CC.[Au+] [Auranofin] (2500 nM)	48.5	-11.2	68.4	60.1	71	-5.72	91	73.2	96.3	1.35	-37	79.6	76.2	13.3	84.1	28.8	-35.6	56.2	47.9	0.2	49.8	41.8	9.42	4.51	32.6	31.8	39.1	1.72	11.1	19.1	37.9	8.02	22.4	1.5	0.33	21.9	34.3
